US20030166018A1, “Methods for identifying agents that modulate mast cell degranulation” (priority 2002, published 2003)

Tested on: mast cells
Assay: Radioprotection of mast cells from γ-irradiation-induced apoptosis (anti-annexin V and propidium iodide staining)
Format: cell-based
Details: cultured mast cells from wild type and SWAP-70 ko/ko mice (similar degree in both); 100 ng/ml SCF, with or without IL-3; irradiated 0-160 Gy; FIG. 3B
From the text: Analysis of peritoneal fluid by Percol gradient centrifugation used step-gradients (increments 0.005) with densities of Percol in PBS, 2% FCS from 1.07 to 1.09. Cells accumulating in the pellet and those banding at 1.09 and 1.085 densities stained intensively with toluidine blue and with berberine sulfate and are regarded as mature mast cells. Assays for apoptosis used staining of cells with propidium iodide or anti annexin V antibodies as described (Ref. 15). Immunofluorescence and Western blotting were performed as described (Ref. 24).
Mast cells from wild type and SWAP-70^ko/ko mice were cultured in the presence or absence of 100 ng/ml SCF, with or without IL-3, and irradiated with various doses (0-160 Gy). Subsequently, apoptosis was measured by staining with anti-annexin V and propidium iodine. […] This elevated sensitivity was confirmed in a series of irradiation experiments in which mast cells were compared to other primary cell types, including thymocytes, preB cells, and fibroblasts. All of these non-mast cell were of identical sensitivity for γ-irradiation regardless of their SWAP-70 genotype. No increased sensitivity of SWAP-70 deficient mast cells for UV irradiation was observed.

Substance: stem cell factor [SCF]
- protection from γ-irradiation-induced apoptosis: 3 fold
